Results taken from patent publication US20240342116A1, “TARGETING SOX10+ BONE MARROW GLIAL CELLS FOR TREATING MYELOFIBROSIS” (The Trustees of Columbia University in the City of New York, priority 2023, published 2024).
Entries after “also recorded” stand apart in the source; their conditions may differ.

Columns and labels:
[1] = tested on: Sox10+ glial cells / ErbB3+ glial cells; test: Use examples: treatment of a subject with myelofibrosis; conditions: after one or more doses
Experimental: The subject is treated with a combined Jak inhibition and ErbB3 pathway inhibition, using, e.g., an antibody or antibody fragment agent which blocks ErbB3. […] The combined treatment targets both the hematopoietic compartment and the bone marrow niche.

[2] = tested on: Sox10+ glial cells in the bone marrow; test: Bone marrow glial cell ablation (chemical sympathectomy) with 6-OHDA in the MPLW515L PMF model
[3] = molecular target: T1, alarmin complex (S100A8/A9) (Mus musculus, UniProt P31725); conditions: reference 63; cited from earlier work
T1 sequence (P31725 2-113 limits assumed): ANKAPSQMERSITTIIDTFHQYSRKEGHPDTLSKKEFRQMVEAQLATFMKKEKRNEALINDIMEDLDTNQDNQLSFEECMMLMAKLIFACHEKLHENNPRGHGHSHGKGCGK

SMILES	symptom(s) of myelofibrosis [1]	depletion of Sox10+ glial cells in the bone marrow ([2]; 6-OHDA-treated mice)	body weight loss ([2]; 6-OHDA-treated mice, 50 mg/kg i.v. twice on alternating days)	bone marrow cellularity ([2]; MPLW515L PMF mice vs vehicle)	liver size / weight ([2]; MPLW515L PMF mice vs vehicle)	spleen size / weight ([2]; MPLW515L PMF mice vs vehicle)	bone marrow fibrosis ([2]; MPLW515L PMF mice vs vehicle-treated control)	levels of active TGF-β in the bone marrow ([2]; bone marrow fluid, ELISA, MPLW515L PMF mice vs vehicle)	levels of active TGF-β in the serum ([2]; serum, ELISA, MPLW515L PMF mice vs vehicle)	PMF features [3]
NCCc1cc(O)c(O)cc1O [6-OHDA, 6-hydroxydopamine]	one or more improvements	efficiently depleted	no significant body weight loss	significant increase	reduced; also recorded: decreased	reduced; also recorded: decreased	significantly reduced; also recorded: ameliorated	significantly reduced	without affecting	–
COc1cccc2c1c(O)c(C(=O)N(C)c1ccc(C(F)(F)F)cc1)c(=O)n2C [tasquinimod]	–	–	–	–	–	–	–	–	–	ameliorated
